Target: T1, MRGPRX2 (Homo sapiens, UniProt Q96LB1)
T1 sequence (Q96LB1 1-330): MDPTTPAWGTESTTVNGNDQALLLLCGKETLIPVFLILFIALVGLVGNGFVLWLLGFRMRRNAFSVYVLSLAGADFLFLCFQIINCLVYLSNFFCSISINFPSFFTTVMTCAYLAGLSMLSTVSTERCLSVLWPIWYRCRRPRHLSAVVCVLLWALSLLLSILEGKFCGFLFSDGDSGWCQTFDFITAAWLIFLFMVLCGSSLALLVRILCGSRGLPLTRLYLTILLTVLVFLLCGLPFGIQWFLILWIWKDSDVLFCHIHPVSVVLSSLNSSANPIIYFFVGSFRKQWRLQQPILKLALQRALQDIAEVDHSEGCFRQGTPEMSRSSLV
Assay: MRGPRX2 β-Arrestin recruitment assay (PathHunter CHO-K1)
Assay type: cell-based
Design: host or cells: PathHunter CHO-K1
Details: PathHunter CHO-K1 cells, agonist Cortistatin 14 0.25 μM
From the text: Example C: MRGPRX2 β-Arrestin Assay
This assay measures compound inhibition of β-Arrestin recruitment, which is part of the G protein-independent pathway that results from the ligand-activated GPCR phosphorylation by specific GPCR kinases. The PathHunter CHO-K1 MRPGRX2 B-Arrestin Cell line stably expressing ProLink tagged MRGPRX2 and Enzyme Acceptor Tagged B-Arrestin was purchased from Eurofins DiscoverX, (Fremont, CA).
The cells were maintained in culture medium from the Europhins DiscoverX Cell Culture Kit-107 which includes FBS, hygromycin B and G418. For the assay, the cells were harvested and were resuspended with Cell Plating Reagent 2 (Eurofins DiscoverX). Cells were added 10000 cells in 25 μL/well to a 384-well black cell culture plate (Greiner VWR, Radnor, PA) which contained 125 nL/well of compound at a selected serially diluted concentration range or DMSO. The plate was incubated at 37° C. with 5% CO2 for 1 h. 2 μL/well of agonist Cortistatin 14 was diluted in Protein Dilution Buffer, (Eurofins DiscoverX) for a final concentration of 0.25 μM, was added and the plate was incubated at 37° C. with 5% CO2 for 90 min. 14 μL/well of Detection Reagent Mix (PathHunter Detection Kit, Eurofins DiscoverX) was added to the plates and further incubated for 1 h in the dark. Plates were read on the PHERAstar microplate reader (BMG Labtech Cary, NC) measuring luminescence 0.1 to 1 s per well. Data was normalized using DMSO only wells and wells with high concentration of reference antagonist as controls. Compound IC50 curves were globally fitted with 3- or 4-parameter Hill equation in a Genedata Screener (Genedata Basel, Switzerland).

| SMILES | IC50 |
| --- | --- |
| C[C@@]1(O)CCN(C(CNc2cc(C(F)(F)F)nc3cc(C(F)(F)F)nn23)c2ccc(F)cc2)C1 (mixture of isomers) [Example 30, (3R)-1-(2-((2,5-Bis(trifluoromethyl)pyrazolo[1,5-a]pyrimidin-7-yl)amino)-1-(4-fluorophenyl)ethyl)-3-methylpyrrolidin-3-ol] | 0.1 to 100 nM |
| OC[C@H]1CCN(C(CNc2cc(C(F)(F)F)nc3cc(C(F)(F)F)nn23)c2ccc(F)cc2)C1 (mixture of isomers) [Example 31, ((3S)-1-(2-((2,5-Bis(trifluoromethyl)pyrazolo[1,5-a]pyrimidin-7-yl)amino)-1-(4-fluorophenyl)ethyl)pyrrolidin-3-yl)methanol] | 0.1 to 100 nM |
| OC1CCC12CN(C(CNc1cc(C(F)(F)F)nc3cc(C(F)(F)F)nn13)c1ccc(F)cc1)C2 (mixture of isomers) [Example 34, 2-(2-((2,5-Bis(trifluoromethyl)pyrazolo[1,5-a]pyrimidin-7-yl)amino)-1-(4-fluorophenyl)ethyl)-2-azaspiro[3.3]heptan-5-ol] | 0.1 to 100 nM |
| CCC(CNc1cc(C(F)(F)F)nc2cc(C(F)(F)F)nn12)(c1ccc(F)cc1)C1CN(C(N)=O)C1 (racemic) [Example 1, 3-(1-((2,5-Bis(trifluoromethyl)pyrazolo[1,5-a]pyrimidin-7-yl)amino)-2-(4-fluorophenyl)butan-2-yl)azetidine-1-carboxamide] | 0.1 to 100 nM |
| CC(CNc1cc(C(F)(F)F)nc2cc(C(F)(F)F)nn12)(c1ccc(F)cc1)C1CCN(C(N)=O)CC1 (racemic) [Example 2, 4-(1-((2,5-Bis(trifluoromethyl)pyrazolo[1,5-a]pyrimidin-7-yl)amino)-2-(4-fluorophenyl)propan-2-yl)piperidine-1-carboxamide] | 0.1 to 100 nM |
| Cn1nc(N2CC(C(C)(CNc3cc(C(F)(F)F)nc4cc(C(F)(F)F)nn34)c3ccc(F)cc3)C2)ccc1=O (racemic) [Example 12, 6-(3-(1-((2,5-Bis(trifluoromethyl)pyrazolo[1,5-a]pyrimidin-7-yl)amino)-2-(4-fluorophenyl)propan-2-yl)azetidin-1-yl)-2-methylpyridazin-3(2H)-one] | 0.1 to 100 nM |
| NC(=O)N1CCC(C(CNc2cc(C(F)(F)F)nc3cc(C(F)(F)F)nn23)c2ccc(F)cc2)CC1 (racemic) [Example 15, 4-(2-((2,5-Bis(trifluoromethyl)pyrazolo[1,5-a]pyrimidin-7-yl)amino)-1-(4-fluorophenyl)ethyl)piperidine-1-carboxamide] | 0.1 to 100 nM |
| NC(=O)N1CC(C(CO)(CNc2cc(C(F)(F)F)nc3cc(C(F)(F)F)nn23)c2ccc(F)cc2)C1 (racemic) [Example 21, 3-(1-((2,5-Bis(trifluoromethyl)pyrazolo[1,5-a]pyrimidin-7-yl)amino)-2-(4-fluorophenyl)-3-hydroxypropan-2-yl)azetidine-1-carboxamide] | 0.1 to 100 nM |
| OC1CCC2(CC1)CN(C(CNc1cc(C(F)(F)F)nc3cc(C(F)(F)F)nn13)c1ccc(F)cc1)C2 (racemic) [Example 23, 2-(2-((2,5-Bis(trifluoromethyl)pyrazolo[1,5-a]pyrimidin-7-yl)amino)-1-(4-fluorophenyl)ethyl)-2-azaspiro[3.5]nonan-7-ol] | 0.1 to 100 nM |
| Fc1ccc(C(CNc2cc(C(F)(F)F)nc3cc(C(F)(F)F)nn23)N2CC(c3ccccn3)C2)cc1 (racemic) [Example 24, N-(2-(4-Fluorophenyl)-2-(3-(pyridin-2-yl)azetidin-1-yl)ethyl)-2,5-bis(trifluoromethyl)pyrazolo[1,5-a]pyrimidin-7-amine] | 0.1 to 100 nM |
| Cn1cc(NC2CN(C(CNc3cc(C(F)(F)F)nc4cc(C(F)(F)F)nn34)c3ccc(F)cc3)C2)nn1 (racemic) [Example 27, N-(2-(4-Fluorophenyl)-2-(3-((1-methyl-1H-1,2,3-triazol-4-yl)amino)azetidin-1-yl)ethyl)-2,5-bis(trifluoromethyl)pyrazolo[1,5-a]pyrimidin-7-amine] | 0.1 to 100 nM |
| Cn1ccnc1NC1CN(C(CNc2cc(C(F)(F)F)nc3cc(C(F)(F)F)nn23)c2ccc(F)cc2)C1 (racemic) [Example 28, N-(2-(4-Fluorophenyl)-2-(3-((1-methyl-1H-imidazol-2-yl)amino)azetidin-1-yl)ethyl)-2,5-bis(trifluoromethyl)pyrazolo[1,5-a]pyrimidin-7-amine] | 0.1 to 100 nM |
| O=C1CCC2(CN(C(CNc3cc(C(F)(F)F)nc4cc(C(F)(F)F)nn34)c3ccc(F)cc3)C2)N1 (racemic) [Example 32, 2-(2-((2,5-Bis(trifluoromethyl)pyrazolo[1,5-a]pyrimidin-7-yl)amino)-1-(4-fluorophenyl)ethyl)-2,5-diazaspiro[3.4]octan-6-one] | 0.1 to 100 nM |
| NC(=O)N1CC2(CCN(C(CNc3cc(C(F)(F)F)nc4cc(C(F)(F)F)nn34)c3ccc(F)cc3)C2)C1 (racemic) [Example 33, 6-(2-((2,5-Bis(trifluoromethyl)pyrazolo[1,5-a]pyrimidin-7-yl)amino)-1-(4-fluorophenyl)ethyl)-2,6-diazaspiro[3.4]octane-2-carboxamide] | 0.1 to 100 nM |
| N#CC1(C(=O)N2CC3(C2)CN(C(CNc2cc(C(F)(F)F)nc4cc(C(F)(F)F)nn24)c2ccc(F)cc2)C3)CC1 (racemic) [Example 38, 1-(6-(2-((2,5-Bis(trifluoromethyl)pyrazolo[1,5-a]pyrimidin-7-yl)amino)-1-(4-fluorophenyl)ethyl)-2,6-diazaspiro[3.3]heptane-2-carbonyl)cyclopropane-1-carbonitrile] | 0.1 to 100 nM |
| O=C(CO)N1CC2(C1)CN(C(CNc1cc(C(F)(F)F)nc3cc(C(F)(F)F)nn13)c1ccc(F)cc1)C2 (racemic) [Example 39, 1-(6-(2-((2,5-Bis(trifluoromethyl)pyrazolo[1,5-a]pyrimidin-7-yl)amino)-1-(4-fluorophenyl)ethyl)-2,6-diazaspiro[3.3]heptan-2-yl)-2-hydroxyethan-1-one] | 0.1 to 100 nM |
| [2H]C([2H])([2H])NC(=O)N1CC2(C1)CN(C(CNc1cc(C(F)(F)F)nc3cc(C(F)(F)F)nn13)c1ccc(F)cc1)C2 (racemic) [Example 40, 6-(2-((2,5-Bis(trifluoromethyl)pyrazolo[1,5-a]pyrimidin-7-yl)amino)-1-(4-fluorophenyl)ethyl)-N-(methyl-d3)-2,6-diazaspiro[3.3]heptane-2-carboxamide] | 0.1 to 100 nM |
| O=C(NCC(F)(F)F)N1CC2(C1)CN(C(CNc1cc(C(F)(F)F)nc3cc(C(F)(F)F)nn13)c1ccc(F)cc1)C2 (racemic) [Example 41, 6-(2-((2,5-Bis(trifluoromethyl)pyrazolo[1,5-a]pyrimidin-7-yl)amino)-1-(4-fluorophenyl)ethyl)-N-(2,2,2-trifluoroethyl)-2,6-diazaspiro[3.3]heptane-2-carboxamide] | 0.1 to 100 nM |
| O=C1NC2(CO1)CN(C(CNc1cc(C(F)(F)F)nc3cc(C(F)(F)F)nn13)c1ccc(F)cc1)C2 (racemic) [Example 42, 2-(2-((2,5-Bis(trifluoromethyl)pyrazolo[1,5-a]pyrimidin-7-yl)amino)-1-(4-fluorophenyl)ethyl)-7-oxa-2,5-diazaspiro[3.4]octan-6-one] | 0.1 to 100 nM |
| CC(CNc1cc(C(F)(F)F)nc2cc(C(F)(F)F)nn12)(c1ccc(F)cc1)C1CCN(C(N)=O)C1 (single isomer, unassigned) [Example 3, 3-(1-((2,5-Bis(trifluoromethyl)pyrazolo[1,5-a]pyrimidin-7-yl)amino)-2-(4-fluorophenyl)propan-2-yl)pyrrolidine-1-carboxamide] | 0.1 to 100 nM |
| CC(CNc1cc(C(F)(F)F)nc2cc(C(F)(F)F)nn12)(c1ccc(F)cc1)C1CCN(C(N)=O)C1 (single isomer, unassigned) [Example 4, 3-(1-((2,5-Bis(trifluoromethyl)pyrazolo[1,5-a]pyrimidin-7-yl)amino)-2-(4-fluorophenyl)propan-2-yl)pyrrolidine-1-carboxamide] | 0.1 to 100 nM |
| NC(=O)N1CCC(C(CO)(CNc2cc(C(F)(F)F)nc3cc(C(F)(F)F)nn23)c2ccc(F)cc2)C1 (single isomer, unassigned) [Example 19, 3-(1-((2,5-Bis(trifluoromethyl)pyrazolo[1,5-a]pyrimidin-7-yl)amino)-2-(4-fluorophenyl)-3-hydroxypropan-2-yl)pyrrolidine-1-carboxamide] | 0.1 to 100 nM |
| NC(=O)N1CC2(C1)CN(C(CNc1cc(C(F)(F)F)nc3cc(C(F)(F)F)nn13)c1ccc(F)cc1)C2 (single isomer, unassigned) [Example 29, 6-(2-((2,5-Bis(trifluoromethyl)pyrazolo[1,5-a]pyrimidin-7-yl)amino)-1-(4-fluorophenyl)ethyl)-2,6-diazaspiro[3.3]heptane-2-carboxamide] | 0.1 to 100 nM |

From patent US20250243208A1, “BICYCLIC HETEROCYCLES AS MRGPRX2 ANTAGONISTS” (Incyte Corporation, priority 2024, published 2025)
